Columns and labels:
PilF159-302 Q190E = biological target: T1, PilF159-302 Q190E (Thermus thermophilus, UniProt Q72H73, Q190E); test: ITC c-di-GMP binding to Q190E mutant, pH series; conditions: 20 °C
T1 sequence (Q72H73 159-302 Q190E): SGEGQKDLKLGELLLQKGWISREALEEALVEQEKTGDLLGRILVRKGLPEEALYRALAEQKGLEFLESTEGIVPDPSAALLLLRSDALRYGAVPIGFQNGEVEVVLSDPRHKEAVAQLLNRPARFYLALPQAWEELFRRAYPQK
Description: To characterize c-di-GMP binding by PilF159-302, the Q190E and Q218E constructs via isothermal titration calorimetry (ITC) and X-ray crystallography unlabeled c-di-GMP was synthesized using a constitutively active mutant of a diguanylate cyclase from the thermophilic bacterium Thermogata maritima ^[4^4,4^5]. For NMR experiments ^13C,^15N labelled c-di-GMP was synthesized identically using ^13C,^15N labelled GTP as a substrate.
c-di-GMP binding capabilities of PilF159-302, its mutant constructs PilF159-302 Q190E and PilF159-302 Q218E at varying pH-values were investigated by isothermal titration calorimetry (ITC) experiments in triplicate. All measurements were conducted at 20 °C using a MicroCal ITC200 (Malvern Panalytical, UK). For PilF159-302 Q190E and PilF159-302 Q218E ITC-measurements were conducted in a pH range from pH 8.5 – 4.0 with the buffering agent adjusted to the respective pH-range. For the pH-range 8.5 – 7.5 a sample buffer of 50 mM Tris, 200 mM NaCl and 1 mM β-Me was used. For pH values 7.0 – 6.0 a sample buffer of 50 mM BisTris, 200 mM NaCl, 1 mM β-Me and for pH 5.5 – 4.0 a sample buffer of 50 mM NaAc, 200 mM NaCl, 1 mM β-Me was used. For reference PilF159-302 was titrated with c-di-GMP at pH 8.5 in 50 mM Tris pH 8.5, 200 mM NaCl, 1 mM β-Me and at pH 4.0 in 50 mM NaAc pH 4.0, 200 mM NaCl, 1 mM β-Me. In order to test whether the buffer reagents have an influence on the measured thermodynamic parameters, cross measurements were performed in the region of the pH transitions. To this end, additional measurements with BisTris at pH 7.5 and 5.5, with Tris at pH 7.0 and with NaAc at pH 6.0 were carried out as singlets. The buffer agents had no influence on measured KD-values and resulted only in small changes of the ΔH values. All protein samples were dialyzed two times against 500 ml of the respective sample buffer (1 L in total) at 4 °C for at least 16 hours per step using a dialysis chamber with a nominal 3.5 kDa molecular weight cutoff (ZelluTrans, ROTH). To prepare the ITC-measurements protein and c-di-GMP sample were adjusted to the respective concentration using the dialysis buffer. Protein and c-di-GMP concentration ranged from 20 to 50 µM (protein) and 200 to 500 µM (c-di-GMP) depending on the c-di-GMP binding capabilities at the different pH-values to optimize precision of the measurements. For pH 8.5 – 7.0 a protein concentration of 50 µM with 500 µM c-di-GMP was used. For pH 6.5 – 5.0 a protein concentration of 30 µM with 300 µM c-di-GMP and for pH 4.5 – 4.0 a protein concentration of 20 µM with 200 µM c-di-GMP was used. The following protocol was utilized for each measurement. To 270 µl protein a total of 40 µl c-di-GMP was titrated in 21 injections with a duration of 4 s in intervals of 180 s with a stirring speed of 750 rpm. The first injection of 0.2 µl c-di-GMP with a duration of 0.4 s was carried out after an initial delay of 120 s, which was followed by 20 injections of 2 µl each with a duration of 4 s. During the measurement, the feedback mode was set to high and the reference power to 11 µcal s^-1. All thermograms were processed using Origin 7.0 (OriginLab) using the one-site binding model.

PilF159-221 = system: PilF159-221; set-up: method as in PMID 39615687; conditions: cited from earlier work
[1] = Bis-Tris, pH 5.5, buffer cross measurement, singlet
[2] = Bis-Tris, pH 7.5, buffer cross measurement, singlet
[3] = Na-Acetate, pH 6.0, buffer cross measurement, singlet
[4] = Tris, pH 7.0, buffer cross measurement, singlet

Nc1nc2c(ncn2C2OC3COP(=O)(O)OC4C(COP(=O)(O)OC3C2O)OC(n2cnc3c(=O)[nH]c(N)nc32)C4O)c(=O)[nH]1 (stereo not shown) [c-di-GMP]
-TΔS (PilF159-302 Q190E; [1]): -2.53 kcal/mol
Kd (PilF159-302 Q190E; [1]): 71 nM
ΔG (PilF159-302 Q190E; [1]): -9.58 kcal/mol
ΔH (PilF159-302 Q190E; [1]): -7.06 kcal/mol
-TΔS (PilF159-302 Q190E; Bis-Tris, pH 6.0): -3.45 ± 0.05 kcal/mol
Kd (PilF159-302 Q190E; Bis-Tris, pH 6.0): 67 ± 3 nM
N (PilF159-302 Q190E; Bis-Tris, pH 6.0): 0.96 ± 0.01
ΔG (PilF159-302 Q190E; Bis-Tris, pH 6.0): -9.40 ± 0.02 kcal/mol
ΔH (PilF159-302 Q190E; Bis-Tris, pH 6.0): -5.97 ± 0.05 kcal/mol
-TΔS (PilF159-302 Q190E; Bis-Tris, pH 6.5): -3.55 ± 0.20 kcal/mol
Kd (PilF159-302 Q190E; Bis-Tris, pH 6.5): 160 ± 34 nM
N (PilF159-302 Q190E; Bis-Tris, pH 6.5): 0.72 ± 0.12
ΔG (PilF159-302 Q190E; Bis-Tris, pH 6.5): -9.12 ± 0.13 kcal/mol
ΔH (PilF159-302 Q190E; Bis-Tris, pH 6.5): -5.58 ± 0.09 kcal/mol
-TΔS (PilF159-302 Q190E; Bis-Tris, pH 7.0): -4.14 ± 0.23 kcal/mol
Kd (PilF159-302 Q190E; Bis-Tris, pH 7.0): 236 ± 8 nM
N (PilF159-302 Q190E; Bis-Tris, pH 7.0): 0.98 ± 0.01
ΔG (PilF159-302 Q190E; Bis-Tris, pH 7.0): -8.88 ± 0.02 kcal/mol
ΔH (PilF159-302 Q190E; Bis-Tris, pH 7.0): -4.76 ± 0.21 kcal/mol
-TΔS (PilF159-302 Q190E; [2]): -2.51 kcal/mol
Kd (PilF159-302 Q190E; [2]): 505 nM
ΔG (PilF159-302 Q190E; [2]): -8.44 kcal/mol
ΔH (PilF159-302 Q190E; [2]): -5.93 kcal/mol
-TΔS (PilF159-302 Q190E; Na-Acetate, pH 4.0): -2.59 ± 0.37 kcal/mol
Kd (PilF159-302 Q190E; Na-Acetate, pH 4.0): 40 ± 13 nM
N (PilF159-302 Q190E; Na-Acetate, pH 4.0): 0.98 ± 0.01
ΔG (PilF159-302 Q190E; Na-Acetate, pH 4.0): -9.96 ± 0.22 kcal/mol
ΔH (PilF159-302 Q190E; Na-Acetate, pH 4.0): -7.37 ± 0.17 kcal/mol
-TΔS (PilF159-302 Q190E; Na-Acetate, pH 4.5): -2.27 ± 0.87 kcal/mol
Kd (PilF159-302 Q190E; Na-Acetate, pH 4.5): 42 ± 13 nM
N (PilF159-302 Q190E; Na-Acetate, pH 4.5): 0.95 ± 0.13
ΔG (PilF159-302 Q190E; Na-Acetate, pH 4.5): -9.92 ± 0.18 kcal/mol
ΔH (PilF159-302 Q190E; Na-Acetate, pH 4.5): -7.65 ± 0.98 kcal/mol
-TΔS (PilF159-302 Q190E; Na-Acetate, pH 5.0): -0.27 ± 0.51 kcal/mol
Kd (PilF159-302 Q190E; Na-Acetate, pH 5.0): 78 ± 11 nM
N (PilF159-302 Q190E; Na-Acetate, pH 5.0): 0.91 ± 0.04
ΔG (PilF159-302 Q190E; Na-Acetate, pH 5.0): -9.54 ± 0.09 kcal/mol
ΔH (PilF159-302 Q190E; Na-Acetate, pH 5.0): -9.28 ± 0.43 kcal/mol
-TΔS (PilF159-302 Q190E; Na-Acetate, pH 5.5): -1.11 ± 0.16 kcal/mol
Kd (PilF159-302 Q190E; Na-Acetate, pH 5.5): 74 ± 8 nM
N (PilF159-302 Q190E; Na-Acetate, pH 5.5): 1.02 ± 0.02
ΔG (PilF159-302 Q190E; Na-Acetate, pH 5.5): -9.56 ± 0.07 kcal/mol
ΔH (PilF159-302 Q190E; Na-Acetate, pH 5.5): -8.54 ± 0.04 kcal/mol
-TΔS (PilF159-302 Q190E; [3]): -0.49 kcal/mol
Kd (PilF159-302 Q190E; [3]): 96 nM
ΔG (PilF159-302 Q190E; [3]): -9.41 kcal/mol
ΔH (PilF159-302 Q190E; [3]): -8.93 kcal/mol
-TΔS (PilF159-302 Q190E; [4]): -6.09 kcal/mol
Kd (PilF159-302 Q190E; [4]): 223 nM
ΔG (PilF159-302 Q190E; [4]): -8.92 kcal/mol
ΔH (PilF159-302 Q190E; [4]): -2.81 kcal/mol
-TΔS (PilF159-302 Q190E; Tris, pH 7.5): -4.63 ± 0.19 kcal/mol
Kd (PilF159-302 Q190E; Tris, pH 7.5): 511 ± 13 nM
N (PilF159-302 Q190E; Tris, pH 7.5): 0.95 ± 0.09
ΔG (PilF159-302 Q190E; Tris, pH 7.5): -8.44 ± 0.02 kcal/mol
ΔH (PilF159-302 Q190E; Tris, pH 7.5): -3.81 ± 0.20 kcal/mol
-TΔS (PilF159-302 Q190E; Tris, pH 8.0): -3.37 ± 0.65 kcal/mol
Kd (PilF159-302 Q190E; Tris, pH 8.0): 729 ± 44 nM
N (PilF159-302 Q190E; Tris, pH 8.0): 0.84 ± 0.17
ΔG (PilF159-302 Q190E; Tris, pH 8.0): -8.23 ± 0.04 kcal/mol
ΔH (PilF159-302 Q190E; Tris, pH 8.0): -4.87 ± 0.68 kcal/mol
-TΔS (PilF159-302 Q190E; Tris, pH 8.5): -2.52 ± 0.20 kcal/mol
Kd (PilF159-302 Q190E; Tris, pH 8.5): 798 ± 39 nM
N (PilF159-302 Q190E; Tris, pH 8.5): 0.86 ± 0.09
ΔG (PilF159-302 Q190E; Tris, pH 8.5): -8.18 ± 0.03 kcal/mol
ΔH (PilF159-302 Q190E; Tris, pH 8.5): -5.66 ± 0.17 kcal/mol
c-di-GMP binding affinity of subdomain relative to full-length domain (PilF159-221): comparable

— article PMC12207366, “Protonated Glutamate and Aspartate Side Chains Can Recognize Phosphodiester Groups via Strong and Short Hydrogen Bonds in Biomacromolecular Complexes” (Angewandte Chemie (International Ed. in English), 2025)
